Data published in PMC11859236, “A Sequential Ultrafiltration Method to Enhance the Accuracy and Throughput in Plasma Protein Binding Tests” (Pharmaceutics, 2025).
Counter-ions that a name gives are not always drawn. Like-named read-outs stand apart in the source and are kept apart here. Blank lines part the entries; values can stand above or below the compound they belong to.

Tests used:
plasma proteins [1] = test: Mass balance UF, plasma protein binding; details: for Plasma protein binding (%): Mass balance UF, rat plasma, mean (±SD)
Protocol: Washing procedures were performed in accordance with established methods for conventional ultrafiltration. Further procedures were conducted as per the protocols outlined by Wang and Williams. […] Following centrifugation, the filter was carefully detached from the FT tube, and the filtrate was removed. The filter was then inverted and transferred to a new retentate collection tube (RT tube), where it underwent a second centrifugation at 1000× g for 2 min at 25 °C. The retentate was subsequently extracted from the RT tube (Figure 2A).
In this equation, CR and VR represent the concentration and volume of the retentate obtained from the final RT tube, while CF and VF denote the concentration and volume of the filtrate collected from the FT tube.

plasma proteins [2] = details: male, Sprague Dawley, rat, 2 h, 10 μM
Protocol: (§2) Rat plasma was collected from male Sprague Dawley rats purchased from Orient Bio Inc. (Seongnam, Republic of Korea). The plasma was separated from whole blood samples using centrifugation and was utilized immediately for the PPB test.
(§3) All compounds, with the exception of otaplimastat and ciclopirox, were added to 1 mL of blank plasma to achieve a drug concentration of 10 μM. Otaplimastat and ciclopirox were examined at concentrations of 5 μM and 1 μg/mL, respectively. The compound-added plasma samples were incubated in a water bath at 37 °C and agitated at 50 rpm for two hours prior to the PPB test.
(§4) A volume of 0.5 mL of the plasma sample was initially loaded onto the filter within the FT tube. The tube was then subjected to centrifugation at 14,000× g for 2 min at a temperature of 25 °C, serving as the pre-ultrafiltration (pre-UF) step.
(§5) The bound and unbound plasma fractions were subjected to linear regression analysis, with the regression line established by constraining the y-intercept to zero [14].

[3] = cited from earlier work
plasma proteins [4] = test: Sequential UF, plasma protein binding; details: for Plasma protein binding (%): Sequential UF, rat plasma, mean (±SD)
Protocol: as §2, §3, §4, §5

Log p (lipophilicity) = type: physicochemical; details: in-house unpublished data
Excerpt: Table 2 Log p value of the test compounds. | column: Log p

plasma proteins [5] = test: Conventional UF without NSB correction, plasma protein binding; type: in vitro ADME, rat; details: male, Sprague Dawley
Protocol: (§1) The device used in the experiment was Amicon® Ultra, which is commonly used in UF experiments. UF was conducted following the manufacturer's user guide. Briefly, the centrifugal filter units were washed once with 0.1N NaOH and then twice with double-distilled water by centrifugation at 14,000× g for 15 min. […] The exact process was performed using phosphate-buffered saline (PBS) instead of plasma to obtain a filtrate solution for correction with PBS [13].

plasma proteins [6] = test: Conventional UF with NSB correction using PBS, plasma protein binding; type: in vitro ADME; details: male, Sprague Dawley, rat plasma, conventional UF with NSB correction by PBS, mean ± SD, read-out: percentage of PPB (converted)
Protocol: as §1, with “[13]. […] In this equation, CSB indicates the concentration of the buffer sample, while CFB signifies the concentration of the filtrate sample derived from ultrafiltration using the buffer.” for “[13].”

plasma proteins [7] = test system: plasma proteins; parameters: method as in PMID 11709325; details: equilibrium dialysis; cited from earlier work
[8] = male, Sprague Dawley, rat, plasma

Plasma protein binding (%) (plasma proteins [1]; 5 μM): 50.63 (±11.71) %
Log p (Log p (lipophilicity)): 2.67
Plasma protein binding (%) (plasma proteins [4]; 5 μM): 57.61 (±3.39) %
SMILES: CC(=O)N(CCCCNCCCn1c(=O)[nH]c2ccccc2c1=O)CCCn1c(=O)[nH]c2ccccc2c1=O [Otaplimastat]

fraction unbound at 2 h, 10 μM (plasma proteins [5]; rat plasma, conventional UF without NSB correction, mean ± SD, read-out: percentage of PPB (converted)): 0.103
excess of PPB by conventional UF without NSB correction over PPB with NSB correction using PBS (plasma proteins [5]; rat, 2 h, 10 μM): 22.6%
fraction unbound at 2 h, 10 μM (plasma proteins [6]): 0.33
fraction unbound at 2 h, 10 μM (plasma proteins [1]; [8]): 0.3
fraction unbound at 2 h, 10 μM (plasma proteins [4]; [8]): 0.25
SMILES: COC(=O)c1ccccc1-c1c2ccc(=N)cc-2oc2cc(N)ccc12 [Rhodamine 123, rhodamine 123]
protein binding, literature value (plasma proteins [7]): 70%
Log p [3]: 1.06

Second part, the compound before the results:

SMILES: O=c1c(O)c(-c2ccc(O)c(O)c2)oc2cc(O)cc(O)c12 [Quercetin, quercetin]
difference between CR and CF (retentate and filtrate concentration) (plasma proteins [1]; male, Sprague Dawley, rat, 2 h, 10 μM): 1000 fold
fraction unbound at 2 h, 10 μM (plasma proteins [1]; [8]): 0.0039
absolute difference in PPB between sequential UF and mass balance UF (plasma proteins [2]): 0.31%
Log p [3]: 1.82
fraction unbound at 2 h, 10 μM (plasma proteins [4]; [8]): 0.0008

SMILES: CCc1c2c(nc3ccc(O)cc13)-c1cc3c(c(=O)n1C2)COC(=O)[C@]3(O)CC [SN-38]
Plasma protein binding (%) (plasma proteins [1]; 10 μM): 95.69 (±1.58) %
Log p [3]: 2.31
Plasma protein binding (%) (plasma proteins [4]; 10 μM): 95.47 (±0.88) %

SMILES: Cc1cc(C2CCCCC2)n(O)c(=O)c1 [Ciclopirox]
fraction unbound at 2 h, 1 μg/mL (plasma proteins [1]; [8]): 0.0285
Log p [3]: 2.73
fraction unbound at 2 h, 1 μg/mL (plasma proteins [4]; [8]): 0.0129

SMILES: CCc1c2c(nc3ccc(OC(=O)N4CCC(N5CCCCC5)CC4)cc13)-c1cc3c(c(=O)n1C2)COC(=O)[C@]3(O)CC [Irinotecan, irinotecan hydrochloride]
Log p [3]: 4.18
